From patent US20170112861A1, “DRUG DELIVERY ENHANCER COMPRISING SUBSTANCE FOR ACTIVATING LYSOPHOSPHOLIPID RECEPTORS” (Osaka University, priority 2014, published 2017)

Key:
[1] = tested on: lumen of tumor blood vessels of LLC cell tumors; experiment: Structural changes in lumen of tumor blood vessels (scanning electron microscopy); format: in vivo; details: LLC tumor-bearing mice, LPA 3 mg/kg i.p., 24 hours after administration
Method: LLC cells were subcutaneously inoculated into C57BL/6 NCrSlc mice aged 8 weeks (females, SLC, Inc.) in the same manner as in Example 1. An LPA administration solution was prepared in the same manner as in Example 1. Mice on day 9 post-inoculation of LLC cells (individuals with a tumor volume of 60 to 80 mm^3) were subjected to the experiment. The mice were divided into two groups: control group and LPA group (n=3). LPA (3 mg/kg in 100 μL PBS) or PBS (100 μL) was administered intraperitoneally. At 24 hours after LPA or PBS administration, mice were perfusion fixed under anesthesia with pentobarbital (Kyoritsu Seiyaku Corporation). The fixative used was 0.1 M phosphate buffer (pH 7.4) containing 2% formaldehyde and 2.5% glutaraldehyde. Tumors were then harvested and immersed in the same fixative as that used for perfusion and shaken at 4° C. overnight. The specimens were further immersed in 0.1 M phosphate buffer (pH 7.4) containing 1% osmium tetroxide and 0.5% potassium ferrocyanide. The specimens were dehydrated in an ascending series of ethanol, then the alcohol was replaced with t-butyl alcohol and the specimens were freeze-dried.

B16-BL6 cells = experiment: Lung metastasis from primary lesion in B16-BL6 cell tumor-bearing mice; format: in vivo; details: B16-BL6 tumors, LPA 3 mg/kg i.p. once daily until day 21, counted on day 42, vs control, p<0.01
Method: B16-BL6 cells (1×10^6 cells in 100 μL PBS per animal) were subcutaneously injected into C57BL/6 NCrSlc mice aged 8 weeks (females, SLC, Inc.). On day 7 post-inoculation of B16-BL6 cells, mice with a tumor volume of 30 to 50 mm^3 were selected. The mice were divided into two groups: control group and LPA group (n=3). LPA (3 mg/kg in 100 μL PBS) or PBS (100 μL) was administered intraperitoneally. LPA or PBS was administered once daily until day 21 post-inoculation. On day 42 post-inoculation of B16-BL6 cells, mice were euthanized and the lung was harvested. The number of metastatic colonies in the harvested lung was counted under a stereoscopic microscope (Leica). For the statistical analysis, Student's t-test was performed.

[2] = tested on: Mouse colon cancer colon 26 cells; experiment: Combined administration of LPA and oxaliplatin, tumor growth in colon 26 cell tumor-bearing mice; format: in vivo; details: colon 26 tumors in BALB/c mice; LPA 3 mg/kg i.p.; oxaliplatin 1.5 mg/kg i.p.
Method: LLC cells were subcutaneously inoculated into C57BL/6 NCrSlc mice aged 8 weeks in the same manner as in Example 1. An LPA administration solution was prepared in the same manner as in Example 1. The anticancer drug used was 5-FU (Kyowa Hakko Kirin Co., Ltd.). The 5-FU was prepared as a solution in physiological saline (Otsuka Pharmaceutical Co., Ltd.). On day 7 post-inoculation of LLC cells, mice with a tumor volume of 30 to 50 mm^3 were selected and subjected to the test. The mice were divided into four groups: control group, 5-FU group, LPA group and 5-FU/LPA group (n=3). LPA (3 mg/kg in 100 μL PBS) or 5-FU (100 mg/kg in 100 μL PBS) or PBS (100 μL) was administered intraperitoneally. To 5-FU/LPA group, both LPA and 5-FU were administered intraperitoneally. LPA and PBS were administered once daily for consecutive seven days. 5-FU was administered twice in total, once a week for two weeks (on days 7 and 14 post-inoculation). The tumor size was measured over time after start of administration. The tumor volume was calculated by the formula: volume=length×width×height×0.5. Mice at 2 weeks after start of administration were photographed with a digital camera under anesthesia with pentobarbital. The tumors were harvested and photographed with a digital camera.
Mouse colon cancer colon 26 cells were used. […]

[3] = tested on: newly formed blood vessels in the choroid; experiment: Age-related macular degeneration model (laser-induced choroidal neovascularization), dextran leakage; format: in vivo, mice; details: LPA 3 mg/kg i.p. on days 5 and 6 after laser irradiation, day 7, vs control
Text: C57BL/6 NCrSlc mice aged 8 weeks (females, SLC, Inc.) were used. Tropicamide (Santen Pharmaceutical) was dropped in the eyes of the mice under anesthesia with pentobarbital (Kyoritsu Seiyaku Corporation) to dilate the pupil. The retina surrounding the optic disc of the ocular fundus was irradiated with a laser (Ultima 2000 SE) at four sites in each of the eyes of the mice under observation with a slit lamp microscope for the induction of choroidal neovascularization. The laser irradiation conditions were 150 mW, 0.05 seconds, and 75 μm. LPA (3 mg/kg in 100 μL PBS) was intraperitoneally administered to LPA group (n=3) on days 5 and 6 after laser irradiation, and PBS (100 μL) was intraperitoneally administered to control group (n=3) on days 5 and 6 after laser irradiation. On day 7 after laser irradiation (at 48 hours after first administration of LPA), FITC-labeled 70 kDa dextran (Sigma) was administered to the tail vein of the mice under anesthesia with pentobarbital. The dextran was prepared as a solution by dissolving and diluting the FITC-labeled 70 kDa dextran in PBS to a concentration of 5 mg/mL, and 50 μL of the solution was used for the administration. At 10 minutes after dextran administration, the eyeballs were collected. […]

For lysophosphatidic acid [LPA], the “intraluminal surface of tumor blood vessels” value [1] was “the intraluminal surface of the blood vessels was very smooth”, the “lung metastasis (number of lung metastatic colonies)” value (B16-BL6 cells) was “significantly inhibited” and the “tumor growth (tumor volume)” value [2] was “some inhibitory effects on tumor growth as compared with the control, up to day 17 post-inoculation”. For the same substance, the “leakage of FITC-labeled 70 kDa dextran from newly formed blood vessels” value [3] was “the leakage of dextran was significantly inhibited” and the “size of the newly formed blood vessels in the choroid” value [3] was “no significant difference was observed”.
